ChEMBL document CHEMBL3774318, “Synthesis and antiproliferative activity of goniobutenolides A and B, 5-halogenated crassalactone D derivatives and the corresponding 7-epimers” (Eur J Med Chem, 2016)

Columns and labels:
[1] = Cytotoxicity against human HL60 cells assessed as cell growth inhibition after 72 hrs by MTT assay; assay type: functional, cell-based; conditions: HL-60, 72 h
[2] = Cytotoxicity against human Jurkat T cells assessed as cell growth inhibition after 72 hrs by MTT assay; assay type: functional, cell-based

For `COc1cccc2c1C(=O)c1c(O)c3c(c(O)c1C2=O)C[C@@](O)(C(=O)CO)C[C@@H]3O[C@H]1C[C@H](N)[C@H](O)[C@H](C)O1` [DOXORUBICIN], the IC50 [1] was 920 nM and the IC50 [2] was 30 nM.
